PubChem BioAssay AID2060359 (Molecular Pharmacology Branch, DTP, NCI, 2025)

System: 276233-004-R-J1-PDC spheroids with HUVEC/MSC, viability
Assay: Anticancer human tumor 276233-004-R-J1-PDC patient-derived colon adenocarcinoma cell line growth inhibition [TAK]
Settings: for IC50: curve of first compound; for viability, T/C: stronger effect = lower value
Text: Combinatorial screen of targeted agents with TAK-243 and ipatasertib in multi-cell type tumor spheroids
A high-throughput screen of multi-cell type tumor spheroids was designed to identify active combinations of targeted small molecules and TAK-243 or ipatasertib. Complex spheroids include a stromal component modeled by human endothelial cells (HUVEC) and fibroblasts modeled by human mesenchymal stem cells (MSCs). The concentration ranges selected for each drug and investigational agent were based upon clinically achievable concentrations if the clinical Cmax of the agent was known.
Compounds. The drugs and investigational agents: TAK-243 (785004), ipatasertib (767898), everolimus (733504), selumetinib (741078), bortezomib (756655), trametinib (758246), ixazomib (758254), vemurafenib (761431), dabrafenib (764134), sapanisertib (764658), alpelisib (765974), and copanlisib (816437), were obtained from the National Cancer Institute (NCI) Developmental Therapeutics Program Chemical Repository. The FDA-approved anticancer drug set is available from the NCI Developmental Therapeutics Program. […] The stock solutions were prepared in dimethyl sulfoxide (DMSO, Sigma-Aldrich, St. Louis, MO, cat. D2650) at 800-fold the tested concentration and stored at -70 degrees C prior to their use. All drugs and investigational agents were tested over a range starting from a high concentration at or near the clinical Cmax and decreasing in half-log increments. If the clinical Cmax for an agent had not been determined, the highest concentration tested was 10 microM.
NCI60 Cell Culture. NCI60 cell lines were obtained from the NCI Developmental Therapeutics Program Tumor Repository. For each lot of cells, the Repository performed Applied Biosystems AmpFLSTR Identifiler testing with PCR amplification to confirm consistency with the published Identifier STR profile for each cell line. Cells were kept in continuous culture for no more than 20 passages. The optimal seeding densities for each of the cell lines at each time point assessed were determined prior to performing the concentration response studies. Briefly, the NCI60 human tumor lines were grown as monolayers in RPMI 1640 medium supplemented with 10% FBS and 2 mmol/L L-glutamine.
An additional 2 lines were from the NCI60 cell line panel including melanomas, MALME-3M and SK-MEL-2. Pooled donor human umbilical vein endothelial cells (HUVEC, Lonza, cat. CC-2519) and human mesenchymal stem cells (hMSC, Lonza, cat. PT-2501) were purchased from Lonza (Walkersville, MD).
PDMR cell lines were grown in complete medium (DC medium): Dulbecco's modified Eagle's medium (DMEM)/F12 supplemented with 5% fetal bovine serum (FBS), 2 mM L-glutamine, 100 U/mL penicillin and 100 µg/ml streptomycin, 0.4 µg/ml hydrocortisone, 10 ng/ml epidermal growth factor (EGF) recombinant human protein, 24 µg/mL adenine, and 0.1 mg/mL primocin. During culture from frozen stock vials, PDMR cells were cultured in the same medium containing 10 µM Y-27632 (see Table 3). The PDCs were cultured in complete DMEM/F12 media without 10 microM Y-27632 dihydrochloride for at least two passages prior to the screen. The pooled donor HUVEC and hMSC were cultured in endothelial cell growth medium 2 (PromoCell, Heidelberg, Germany, cat. C-22011) and mesenchymal stem cell growth medium 2 (PromoCell, cat. C-28009), respectively. For all experiments, HUVEC and hMSC were used at passages </=5.
For the pre-screen, cell seeding densities were determined from a titration spanning the range from 5,000 to 313 cells per well. The mct-spheroids including 60% malignant cells, 25% HUVEC and 15% MSC dispensed as a mixture into U-bottom Ultra-Low Attachment 384-well plates (Corning, NY)
High-throughput Drug Combination Screening.
Prior to their inoculation into 384-well plates, malignant cells, HUVEC, and hMSC were removed from T flasks using TrypLE express (Thermo Fisher Scientific, cat. 12605036) and harvested by centrifugation for 5 min at 233 x g. […]
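Also: spheroids exposed to drugs for seven days before the viability read.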

Compound: CC(=O)Nc1cccc(-n2c(=O)n(C3CC3)c(=O)c3c(Nc4ccc(I)cc4F)n(C)c(=O)c(C)c32)c1 + CC(C)NCC(C(=O)N1CCN(c2ncnc3c2C(C)CC3O)CC1)c1ccc(Cl)cc1
- IC50 (second compound 0.3 µM): 8.22 nM
- IC50 (second compound 0.949 µM): 5.23 nM
- IC50 (second compound 3 µM): 3.25 nM
- IC50 (second compound 9.49 µM): 1.82 nM
- IC50 (second compound 30 µM): 0.326 nM
- viability, T/C (second compound 0.3 µM, first compound 94.9 pM): 101%
- viability, T/C (second compound 0.3 µM, first compound 0.0003 µM): 86.7%
- viability, T/C (second compound 0.3 µM, first compound 0.000949 µM): 67.2%
- viability, T/C (second compound 0.3 µM, first compound 0.003 µM): 73.8%
- viability, T/C (second compound 0.3 µM, first compound 0.00949 µM): 48.8%
- viability, T/C (second compound 0.3 µM, first compound 0.03 µM): 28.6%
- viability, T/C (second compound 0.949 µM, first compound 94.9 pM): 80.8%
- viability, T/C (second compound 0.949 µM, first compound 0.0003 µM): 84.8%
- viability, T/C (second compound 0.949 µM, first compound 0.000949 µM): 77.1%
- viability, T/C (second compound 0.949 µM, first compound 0.003 µM): 55.4%
- viability, T/C (second compound 0.949 µM, first compound 0.00949 µM): 43.2%
- viability, T/C (second compound 0.949 µM, first compound 0.03 µM): 26%
- viability, T/C (second compound 3 µM, first compound 94.9 pM): 77.9%
- viability, T/C (second compound 3 µM, first compound 0.0003 µM): 61.6%
- viability, T/C (second compound 3 µM, first compound 0.000949 µM): 64%
- viability, T/C (second compound 3 µM, first compound 0.003 µM): 48.9%
- viability, T/C (second compound 3 µM, first compound 0.00949 µM): 43.5%
- viability, T/C (second compound 3 µM, first compound 0.03 µM): 27.1%
- viability, T/C (second compound 9.49 µM, first compound 94.9 pM): 72.6%
- viability, T/C (second compound 9.49 µM, first compound 0.0003 µM): 69.3%
- viability, T/C (second compound 9.49 µM, first compound 0.000949 µM): 53.5%
- viability, T/C (second compound 9.49 µM, first compound 0.003 µM): 45.5%
- viability, T/C (second compound 9.49 µM, first compound 0.00949 µM): 33%
- viability, T/C (second compound 9.49 µM, first compound 0.03 µM): 18.4%
- viability, T/C (second compound 30 µM, first compound 94.9 pM): 45.8%
- viability, T/C (second compound 30 µM, first compound 0.0003 µM): 55.1%
- viability, T/C (second compound 30 µM, first compound 0.000949 µM): 45.3%
- viability, T/C (second compound 30 µM, first compound 0.003 µM): 27.8%
- viability, T/C (second compound 30 µM, first compound 0.00949 µM): 29.6%
- viability, T/C (second compound 30 µM, first compound 0.03 µM): 33.6%

Compound: CC(C)CC(NC(=O)C(Cc1ccccc1)NC(=O)c1cnccn1)B(O)O (stereo not given) + CC(C)NCC(C(=O)N1CCN(c2ncnc3c2C(C)CC3O)CC1)c1ccc(Cl)cc1
- IC50 (second compound 0.3 µM): 6.01 nM
- IC50 (second compound 0.949 µM): 5.35 nM
- IC50 (second compound 3 µM): 3.83 nM
- IC50 (second compound 9.49 µM): 4.36 nM
- IC50 (second compound 30 µM): 1.38 nM
- viability, T/C (second compound 0.3 µM, first compound 31.6 pM): 103%
- viability, T/C (second compound 0.3 µM, first compound 0.0001 µM): 100%
- viability, T/C (second compound 0.3 µM, first compound 0.000316 µM): 109%
- viability, T/C (second compound 0.3 µM, first compound 0.001 µM): 109%
- viability, T/C (second compound 0.3 µM, first compound 0.00316 µM): 104%
- viability, T/C (second compound 0.3 µM, first compound 0.01 µM): 6.95%
- viability, T/C (second compound 0.949 µM, first compound 31.6 pM): 105%
- viability, T/C (second compound 0.949 µM, first compound 0.0001 µM): 106%
- viability, T/C (second compound 0.949 µM, first compound 0.000316 µM): 147%
- viability, T/C (second compound 0.949 µM, first compound 0.001 µM): 96.8%
- viability, T/C (second compound 0.949 µM, first compound 0.00316 µM): 82.9%
- viability, T/C (second compound 0.949 µM, first compound 0.01 µM): 13%
- viability, T/C (second compound 3 µM, first compound 31.6 pM): 73.4%
- viability, T/C (second compound 3 µM, first compound 0.0001 µM): 79.4%
- viability, T/C (second compound 3 µM, first compound 0.000316 µM): 81.7%
- viability, T/C (second compound 3 µM, first compound 0.001 µM): 80.3%
- viability, T/C (second compound 3 µM, first compound 0.00316 µM): 59.1%
- viability, T/C (second compound 3 µM, first compound 0.01 µM): 4.72%
- viability, T/C (second compound 9.49 µM, first compound 31.6 pM): 61%
- viability, T/C (second compound 9.49 µM, first compound 0.0001 µM): 80.3%
- viability, T/C (second compound 9.49 µM, first compound 0.000316 µM): 73.4%
- viability, T/C (second compound 9.49 µM, first compound 0.001 µM): 66%
- viability, T/C (second compound 9.49 µM, first compound 0.00316 µM): 67.7%
- viability, T/C (second compound 9.49 µM, first compound 0.01 µM): 4.19%
- viability, T/C (second compound 30 µM, first compound 31.6 pM): 56%
- viability, T/C (second compound 30 µM, first compound 0.0001 µM): 53.2%
- viability, T/C (second compound 30 µM, first compound 0.000316 µM): 55.3%
- viability, T/C (second compound 30 µM, first compound 0.001 µM): 61.4%
- viability, T/C (second compound 30 µM, first compound 0.00316 µM): 33.3%
- viability, T/C (second compound 30 µM, first compound 0.01 µM): 20.5%
